Laboratory results reported in patent publication US12448383B2, “Compounds and methods for treatment of viral infections” (priority 2022, dated 2025).

How the values were obtained:
[1] = male, Sprague-Dawley, rat, in vivo, po
Method: Example E: Rat pharmacokinetics assay
Blood samples were collected into pre-chilled collection tubes containing K2EDTA and processed to plasma at 10 time points over a span of pre-dose to 24 h post-administration. Plasma samples were subject to protein precipitation with a 12.5-fold volume of methanol, vortexed and centrifuged. Supernatants were transferred and evaporated to dryness under nitrogen and reconstituted with 5% acetonitrile in water.

[2] = Stability in pH2 buffered solution; assay type: physicochemical; settings: 50 µg/mL, pH 2
Procedure, shortened: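 Compounds diluted from 1 mg/mL acetonitrile stock to 50 μg/mL in 50 mM phosphate buffer with 150 mM NaCl at pH2 or pH7, held at 40° C. for 24 hrs. UPLC sampling at 0, 3, 6, 9, 12 hrs, plus 24 hrs from oven-stored duplicate; reported as % area normalized of compound peak.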

CC(C)C(=O)OC[C@H]1O[C@@](C#N)(c2ccc3c(N)ncnn23)[C@H](O)[C@@H]1O [Ester Reference Compound]
Cmax [1]: 2100 nM | Reference Compound A AUCinf. [1]: 7.57 µM·h | Reference Compound A F % ([1]; 1 mg/kg): 63.6% | Stability at pH2, 0 hr ([2]; 0 h): 98.5 % AN | Stability at pH2, 3 hr ([2]; 3 h): 97.8 % AN | Stability at pH2, 6 hr ([2]; 6 h): 97.3 % AN | Stability at pH2, 9 hr ([2]; 9 h): 96.7 % AN | Stability at pH2, 12 hr ([2]; 12 h): 96.1 % AN | Stability at pH2, 24 hr ([2]; 24 h): 94.4 % AN
